Ki data for 34 molecules are collected here from patent publication US9890152B2 (Genentech, Inc., priority 2012, dated 2018).

Structures can show the parent of a compound that is named as a salt.

T1 sequence (P00533 with tags, fused parts or gaps DEL746-750/T790M limits assumed): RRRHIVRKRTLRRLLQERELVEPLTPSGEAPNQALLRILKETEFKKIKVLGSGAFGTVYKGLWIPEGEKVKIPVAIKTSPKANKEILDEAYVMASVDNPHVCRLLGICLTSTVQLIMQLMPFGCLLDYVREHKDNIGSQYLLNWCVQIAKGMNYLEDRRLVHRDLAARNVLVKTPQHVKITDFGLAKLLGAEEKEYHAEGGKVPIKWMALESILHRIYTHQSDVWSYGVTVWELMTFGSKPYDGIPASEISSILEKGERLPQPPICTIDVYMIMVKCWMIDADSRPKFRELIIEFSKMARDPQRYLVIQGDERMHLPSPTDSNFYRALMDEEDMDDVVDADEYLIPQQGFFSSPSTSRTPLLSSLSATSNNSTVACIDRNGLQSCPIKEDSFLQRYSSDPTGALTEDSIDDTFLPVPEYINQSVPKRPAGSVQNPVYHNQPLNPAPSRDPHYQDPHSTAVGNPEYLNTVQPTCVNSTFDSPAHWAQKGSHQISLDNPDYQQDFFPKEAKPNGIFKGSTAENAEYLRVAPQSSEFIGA

This test addresses T1, EGFR del746-750 T790M (Homo sapiens, UniProt P00533, DEL746-750/T790M).
T1 construct: purchased Carna Biosciences 08-528
Briefly: EGFR del746-750 T790M biochemical assay (Caliper mobility shift). The settings on record: 5 μM ATP, 30 min, room temperature; apparent Ki (Morrison) converted by Cheng-Prusoff, Km of ATP 2.1 μM; read-out: EGFR(T790M/d746-750) Ki.
With `Cc1cn(CCO)nc1-c1cn(C(C)C)c2cc(Nc3ccnc(-c4cnn(S(=O)(=O)C5CC5)c4)n3)ncc12` [Example 253, 2-(3-(6-(2-(1-(Cyclopropylsulfonyl)-1H-pyrazol-4-yl)pyrimidin-4-ylamino)-1-isopropyl-1H-pyrrolo[3,2-c]pyridin-3-yl)-4-methyl-1H-pyrazol-1-yl)ethanol], the Ki was 1.82 nM.

Turning to `CC(C)n1c(CO)nc2cnc(Nc3ccnc(N4CC[C@H](O)[C@H](C(F)(F)F)C4)n3)cc21` (racemic) [Example 626, (±)-(cis)-1-(4-(2-(Hydroxymethyl)-1-isopropyl-1H-imidazo[4,5-c]pyridin-6-ylamino)pyrimidin-2-yl)-3-(trifluoromethyl)piperidin-4-ol], the Ki came out at 1250 nM.

For the molecule `Cc1nc2cnc(Nc3ccnc(-c4cn(CC5CC5)nc4Cl)n3)cc2n1C(C)C` [Example 625, N-(2-(3-Chloro-1-(cyclopropylmethyl)-1H-pyrazol-4-yl)pyrimidin-4-yl)-1-isopropyl-2-methyl-1H-imidazo[4,5-c]pyridin-6-amine], the Ki was determined as 38.6 nM.

As for `COC1CCN(c2nccc(Nc3cc4c(cn3)nc3n4C(C)(C)CO3)n2)CC1` [Example 532, N-(2-(4-methoxypiperidin-1-yl)pyrimidin-4-yl)-3,3-dimethyl-2,3-dihydrooxazolo[3′,2′:1,2]imidazo [4,5-c]pyridin-6-amine], the Ki was found to be 519 nM.

Regarding `CC(C)n1cc(-c2cnn(CC(N)=O)c2)c2cnc(Nc3ccnc(-c4cnn(S(=O)(=O)C5CC5)c4)n3)cc21` [Example 331, 2-(4-(6-((2-(1-(Cyclopropylsulfonyl)-1H-pyrazol-4-yl)pyrimidin-4-yl)amino)-1-isopropyl-1H-pyrrolo[3,2-c]pyridin-3-yl)-1H-pyrazol-1-yl)acetamide], the Ki was found to be 2.83 nM.

For the molecule `CNc1nc2cnc(Nc3ccnc(N4CCC(OC)CC4)n3)cc2n1C(C)C` [Example 6, 1-Isopropyl-N^6-[2-(4-methoxypiperidin-1-yl)pyrimidin-4-yl]-N^2-methyl-1H-imidazo[4,5-c]pyridine-2,6-diamine], the Ki was 63.3 nM.

Regarding `CC(C)n1cc(-c2cnn(C3COC3)c2)c2cnc(Nc3ccnc(-c4cnn(S(=O)(=O)C5CC5)c4)n3)cc21` [Example 441, N-(2-(1-(cyclopropylsulfonyl)-1H-pyrazol-4-yl)pyrimidin-4-yl)-1-isopropyl-3-(1-(oxetan-3-yl)-1H-pyrazol-4-yl)-1H-pyrrolo[3,2-c]pyridin-6-amine], the Ki came out at 0.8 nM.

`CO[C@@H]1CCN(c2nccc(Nc3cc4c(cn3)nc(CO)n4C(C)C)n2)C[C@@H]1C` (racemic) [Example 632, (1-Isopropyl-6-(2-((±)-(cis)-4-methoxy-3-methylpiperidin-1-yl)pyrimidin-4-ylamino)-1H-imidazo[4,5-c]pyridin-2-yl)methanol]: the Ki is 326 nM.

For `COC1CCN(c2nccc(Nc3cc4c(cn3)c(C(=O)NC(C)C)cn4C(C)C)n2)CC1` [Example 120, N,1-diisopropyl-6-((2-(4-methoxypiperidin-1-yl)pyrimidin-4-yl)amino)-1H-pyrrolo[3,2-c]pyridine-3-carboxamide], the Ki was 10.2 nM.

As to `CCC(C)n1cc(C(=O)NC2CCOCC2)c2cnc(Nc3ccnc(-c4cnn(S(=O)(=O)C5CC5)c4)n3)cc21` (single isomer, unassigned; (+)) [Example 321, (+)-1-(sec-Butyl)-6-((2-(1-(cyclopropylsulfonyl)-1H-pyrazol-4-yl)pyrimidin-4-yl)amino)-N-(tetrahydro-2H-pyran-4-yl)-1H-pyrrolo[3,2-c]pyridine-3-carboxamide], the Ki is 1.45 nM.

On to `COC1CCN(c2nccc(Nc3cc4c(cn3)nc(CN(C)C)n4C(C)C)n2)CC1` [Example 9, (2-Dimethylaminomethyl-1-isopropyl-1H-imidazo[4,5-c]pyridin-6-yl)-[2-(4-methoxypiperidin-1-yl)pyrimidin-4-yl]amine formate salt], for which the Ki came out at 417 nM.

For `CCC(C)n1cc(C(=O)NC2CCCOC2)c2cnc(Nc3ccnc(N4CCC(O)C(C)(C)C4)n3)cc21` (stereo not shown) [Example 374, 1-(sec-butyl)-6-((2-(4-hydroxy-3,3-dimethylpiperidin-1-yl)pyrimidin-4-yl)amino)-N-(tetrahydro-2H-pyran-3-yl)-lH-pyrrolo[3,2-c]pyridine-3-carboxamide], the Ki came out at 3.31 nM.

With `CC(C)n1c(CO)nc2cnc(Nc3ccnc(N4CC[C@@](C)(O)[C@H](F)C4)n3)cc21` [Example 675], the Ki was determined as 112 nM.

Consider `Cc1n[nH]cc1-c1nccc(Nc2cc3c(cn2)nc(C)n3C(C)C)n1` [Example 399, 1-isopropyl-2-methyl-N-(2-(3-methyl-1H-pyrazol-4-yl)pyrimidin-4-yl)-1H-imidazo[4,5-c]pyridin-6-amine], for which the Ki turned out to be 14.1 nM.

In the case of `C[C@H](O)c1nc2cnc(Nc3ccnc(N4CC[C@H](O)[C@H](F)C4)n3)cc2n1[C@H](C)C(F)(F)F` [Example 690], the Ki turned out to be 387 nM.

Consider `Cc1c(-c2cn(C(C)C)c3cc(Nc4ccnc(-c5cnn(S(=O)(=O)C6CC6)c5)n4)ncc23)cnn1CCO` [Example 438, 2-(4-(6-(2-(1-(cyclopropylsulfonyl)-1H-pyrazol-4-yl)pyrimidin-4-ylamino)-1-isopropyl-1H-pyrrolo[3,2-c]pyridin-3-yl)-5-methyl-1H-pyrazol-1-yl)ethanol], for which the Ki is 1.06 nM.

Regarding `CO[C@@H]1CCN(c2nccc(Nc3cc4c(cn3)nc(CO)n4C(C)C)n2)C[C@H]1C` [Example 699], the Ki was 305 nM.

Turning to `Cc1nc2cnc(Nc3ccnc(N4CCc5cn[nH]c5C4)n3)cc2n1C(C)C` [Example 651], the Ki worked out at 9.14 nM.

`C[C@H](O)c1nc2cnc(Nc3ccnc(N4CC[C@@H](O)[C@@H](F)C4)n3)cc2n1[C@@H](C)C(F)(F)F` [Example 685]: the Ki worked out at 26.6 nM.

On to `COC1CCN(c2nccc(Nc3cc4c(cn3)nc(C)n4C(C)(C)C)n2)CC1` [Example 163, (1-tert-butyl-2-methyl-1H-imidazo[4,5-c]pyridin-6-yl)-[2-(4-methoxypiperidin-1-yl)pyrimidin-4-yl]amine], for which the Ki stood at 14.9 nM.

As to `CC(C)n1c(CO)nc2cnc(Nc3ccnc(OCC(C)(C)S(C)(=O)=O)n3)cc21` [Example 660], the Ki came out at 171 nM.

On to `C[C@H](n1c([C@@H](C)O)nc2cnc(Nc3ccnc(N4CC[C@@H](O)[C@@H](F)C4)n3)cc21)C(F)(F)F` [Example 291, (3S,4R)-3-Fluoro-1-{4-[2-((R)-1-hydroxyethyl)-1-((S)-2,2,2-trifluoro-1-methylethyl)-1H-imidazo[4,5-c]pyridin-6-ylamino]pyrimidin-2-yl}-piperidin-4-ol], for which the Ki amounted to 3.59 nM.

On to `Cc1nc2cnc(Nc3ccnc(-c4cnn(C)c4)n3)cc2n1C(C)C` [Example 365, 1-Isopropyl-2-methyl-N-(2-(1-methyl-1H-pyrazol-4-yl)pyrimidin-4-yl)-1H-imidazo[4,5-c]pyridin-6-amine], for which the Ki was 46.5 nM.

Consider `Cc1nc2cnc(Nc3ccnc(NCC(C)(C)S(C)(=O)=O)n3)cc2n1C(C)C` [Example 499, N^4-(1-Isopropyl-2-methyl-1H-imidazo[4,5-c]pyridin-6-yl)-N2-(2-methyl-2-(methylsulfonyl)propyl) pyrimidine-2,4-diamine], for which the Ki worked out at 51.7 nM.

As for `Cc1nc2cnc(Nc3ccnc(-c4cnn(CCCN)c4)n3)cc2n1C(C)C` [Example 430, N-(2-(1-(3-aminopropyl)-1H-pyrazol-4-yl)pyrimidin-4-yl)-1-isopropyl-2-methyl-1H-imidazo[4,5-c]pyridin-6-amine], the Ki came to 47.7 nM.

As for `Cc1nc2cnc(Nc3ccnc(N4CC[C@@H](O)C[C@H]4C)n3)cc2n1C(C)C` [Example 601], the Ki came to 50.5 nM.

Turning to `C[C@H](n1c(CO)nc2cnc(Nc3ccnc(N4CC[C@H](O)[C@H](F)C4)n3)cc21)C(C)(F)F` (racemic) [Example 644, (±)-(cis)-1-(4-(1-((S)-3,3-Difluorobutan-2-yl)-2-(hydroxymethyl)-1H-imidazo[4,5-c]pyridin-6-ylamino)pyrimidin-2-yl)-3-fluoropiperidin-4-ol], the Ki worked out at 3.45 nM.

For the molecule `O=C1CC(n2c(CO)nc3cnc(Nc4ccnc(-c5cnn(S(=O)(=O)C6CC6)c5)n4)cc32)CN1` (stereo not shown) [Example 694], the Ki is 709 nM.

As for `Cc1nc2cnc(Nc3ccnc(N4CC[C@@H](C#N)C4)n3)cc2n1C(C)C` [Example 678], the Ki came to 200 nM.

In the case of `CC(C)n1cc(C(=O)NC2COC2)c2cnc(Nc3ccnc(-c4cnn(S(=O)(=O)N5CCCC5)c4)n3)cc21` [Example 388, 1-isopropyl-N-(oxetan-3-yl)-6-((2-(1-(pyrrolidin-1-ylsulfonyl)-1H-pyrazol-4-yl)pyrimidin-4-yl)amino)-1H-pyrrolo[3,2-c]pyridine-3-carboxamide], the Ki stood at 29 nM.

For `CO[C@@H]1CCN(c2nccc(Nc3cc4c(cn3)nc(CO)n4C(C)C)n2)C[C@@H]1Cl` (racemic) [Example 634, (6-(2-((±)-(cis)-3-Chloro-4-methoxypiperidin-1-yl)pyrimidin-4-ylamino)-1-isopropyl-1H-imidazo[4,5-c]pyridin-2-yl)methanol], the Ki is 146 nM.

As to `CC(C)n1c(CO)nc2cnc(Nc3ccnc(N4CC5CC4C5)n3)cc21` [Example 692], the Ki was determined as 140 nM.

For the molecule `Cc1nc2cnc(Nc3ccnc(N4CCC5(CC4)OCCO5)n3)cc2n1C(C)C` [Example 506, N-(2-(1,4-Dioxa-8-azaspiro[4.5]decan-8-yl)pyrimidin-4-yl)-1-isopropyl-2-methyl-1H-imidazo[4,5-c]pyridin-6-amine], the Ki came to 117 nM.

For `CC(C)n1cc(C(=O)NC2CCSCC2)c2cnc(Nc3ccnc(-c4cnn(S(=O)(=O)C5CC5)c4)n3)cc21` [Example 458, 6-(2-(1-(cyclopropylsulfonyl)-1H-pyrazol-4-yl)pyrimidin-4-ylamino)-1-isopropyl-N-(tetrahydro-2H-thiopyran-4-yl)-1H-pyrrolo[3,2-c]pyridine-3-carboxamide], the Ki was 1.35 nM.
